Assay results as given in ChEMBL document CHEMBL1201862, “PubChem BioAssay data set” (2004).
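1) Cells in 96-well plates. 2) Compound, 48 h, 5 concentrations. 3) Linear interpolation between surrounding doses. 4) Unreached endpoint = highest concentration. The concentration for 50% growth inhibition is given as GI50.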 The source made the active and inactive calls. Cut-off read from the data, not from the text of the source: active = GI50 up to about 1.1 µM and inactive = higher.

How the values were obtained:
Test in all cases: growth of human tumour cells (NCI), 48 h
[1] = tested on: HOP-92
[2] = tested on: UACC-257
[3] = tested on: Malme-3M
[4] = tested on: SN12C
[5] = tested on: NCI-H226
[6] = tested on: MDA-N
[7] = tested on: K562
[8] = tested on: ACHN
[9] = tested on: CAKI-1
[10] = tested on: 786-0
[11] = tested on: MDA-MB-231
[12] = tested on: COLO 205
[13] = tested on: PC-3
[14] = tested on: MDA-MB-435
[15] = tested on: SF-539
[16] = tested on: U-251
[17] = tested on: SF-295
[18] = tested on: NCI-H522
[19] = tested on: Hs-578T
[20] = tested on: IGROV-1

Measured: GI50

CCC(C#N)(c1ccccc1)N(CCc1ccccc1)C(=O)c1ccccc1 (stereo not given)
inactive: [1] 12.6 µM | [2] > 100 µM | [3] > 100 µM | [4] 85.5 µM | [5] 18.5 µM | [6] > 100 µM | [7] > 100 µM | [8] 51.2 µM | [9] > 100 µM | [10] 13.3 µM | [11] 13.5 µM | [12] > 100 µM | [13] > 100 µM | [14] > 100 µM | [15] 15.6 µM | [16] 30.3 µM | [17] 29.6 µM | [18] > 100 µM | [19] 18.2 µM | [20] 46.9 µM

Cc1cn([C@H]2C=C[C@@H](CO)O2)c(=O)[nH]c1=O [STAVUDINE]
inactive: [1] 679 µM | [2] > 1000 µM | [3] 361 µM | [4] > 1000 µM | [5] > 1000 µM | [6] > 1000 µM | [7] > 1000 µM | [8] > 1000 µM | [9] 307 µM | [10] 652 µM | [11] > 1000 µM | [12] 410 µM | [13] > 1000 µM | [14] > 1000 µM | [15] 881 µM | [16] > 1000 µM | [17] > 1000 µM | [18] 350 µM | [19] > 1000 µM | [20] > 1000 µM
